Tests used:
rat [1] = conditions: Subchronic oral toxicity in rodents, sprague dawley, Feed, dose end: 90 day, group: systemic
mouse [2] = conditions: Carcinogenicity, cd1, Oral, Feed, dose end: 24 month, group: systemic
dog [3] = conditions: Chronic toxicity, beagle, Oral, Feed, dose end: 52 week, group: systemic
rat [4] = conditions: Combined chronic toxicity/carcinogenicity, sprague dawley, Oral, Feed, dose end: 24 month, group: systemic
rat [5] = conditions: Prenatal developmental toxicity study, other, Oral, Gavage/Intubation, dose end: 15 GD
mouse [6] = conditions: Subchronic oral toxicity in rodents, b6c3f1, Gavage/Intubation, dose end: 14 week, group: systemic
rat [7] = conditions: Subchronic oral toxicity in rodents, fischer, Gavage/Intubation, dose end: 14 week, group: systemic, systemic / in life observation / body weight / body weight + systemic / in life observation / body weight / body weight gain + systemic / …
rat [8] = conditions: Carcinogenicity; fischer; Oral; Gavage/Intubation; dose end: 105 week; group: systemic; systemic / in life observation / body weight / body weight + systemic / pathology gross / liver / discolored + systemic / pathology gross / …
mouse [9] = conditions: Carcinogenicity; b6c3f1; Oral; Gavage/Intubation; dose end: 105 week; group: systemic; systemic / in life observation / body weight / body weight + systemic / pathology microscopic / liver / hematopoietic cell proliferation + …
rabbit [10] = conditions: Subchronic dermal toxicity, new zealand white, Topical, dose end: 13 week, group: systemic, systemic / pathology gross / skin / scabbing + systemic / pathology microscopic / skin / inflammation + systemic / in life observation / …
rat [11] = conditions: Reproduction/developmental toxicity screening test, sprague dawley, Dermal, Topical, dose end: 1 generation
rabbit [12] = conditions: Prenatal developmental toxicity study, new zealand white, Oral, Gavage/Intubation, dose end: 27 GD
rat [13] = conditions: Combined chronic toxicity/carcinogenicity; fischer; Oral; Feed; dose end: 110 week; group: systemic; systemic / clinical chemistry / cholesterol / cholesterol + systemic / clinical chemistry / creatinine / creatinine + systemic / clinical …
rat [14] = conditions: Subchronic oral toxicity in rodents, other, [Not Specified], dose end: 90 day, group: systemic
rabbit [15] = conditions: Prenatal developmental toxicity study, new zealand white, Oral, Gavage/Intubation, dose end: 19 GD
hamster [16] = conditions: Subchronic oral toxicity in rodents, golden syrian, Feed, dose end: 13 week, group: systemic
dog [17] = conditions: Chronic toxicity, beagle, Oral, Feed, dose end: 24 month, group: systemic
hamster [18] = conditions: Carcinogenicity; golden syrian; Oral; Feed; dose end: 88 week; group: systemic; systemic / pathology microscopic / pancreas / hyperplasia + systemic / pathology microscopic / prostate / secretory fluid + systemic / …
rat [19] = conditions: Multigenerational reproductive toxicity study, sprague dawley, Oral, Feed, dose end: 2 generation
hamster [20] = conditions: Carcinogenicity, golden syrian, Oral, Feed, dose end: 91 week, group: systemic
[21] = systemic / clinical chemistry / calcium / calcium + systemic / organ weight / heart / relative to body weight
[22] = systemic / pathology microscopic / liver / cytomegaly
[23] = systemic / pathology microscopic / liver / cytomegaly + systemic / pathology microscopic / lung / adenoma + systemic / in life observation…
[24] = systemic / pathology microscopic / prostate / hyperplasia
[25] = systemic / in life observation / body weight / body weight + systemic / in life observation / body weight / body weight gain
[26] = group: developmental, developmental / developmental malformation / bone / unossified
[27] = group: maternal, systemic / in life observation / body weight / body weight + systemic / in life observation / body weight / body weight gain + systemic / …
[28] = systemic / in life observation / body weight / body weight gain + systemic / organ weight / liver / absolute + systemic / organ weight / …
[29] = systemic / organ weight / epididymis / nos + systemic / organ weight / testes / nos
[30] = group: offspring, systemic / in life observation / body weight / offspring (pup) weight
[31] = group: offspring, systemic / in life observation / body weight / offspring (pup) weight + systemic / in life observation / clinical signs / desquamation + …
[32] = group: parental, systemic / in life observation / body weight / body weight + systemic / in life observation / body weight / body weight gain + systemic / in…
[33] = group: parental, systemic / in life observation / clinical signs / desquamation + systemic / in life observation / clinical signs / erythema + systemic / …
[34] = group: developmental, systemic / in life observation / body weight / fetal weight
[35] = group: maternal, systemic / in life observation / body weight / body weight gain + systemic / in life observation / food consumption / food consumption + …
[36] = systemic / organ weight / liver / nos
[37] = systemic / organ weight / liver / nos + systemic / hematology / leukocyte (wbc) count differential / leukocyte (wbc) + systemic / hematology…
[38] = group: developmental, developmental / developmental malformation / aortic arch / dilated + developmental / developmental malformation / aortic arch / narrowed + …
[39] = group: maternal, reproductive / reproductive performance / postimplantation loss / postimplantation loss + reproductive / reproductive performance / …
[40] = systemic / clinical chemistry / lipids / phospholipids + systemic / organ weight / liver / nos + systemic / organ weight / prostate / nos + …
[41] = systemic / clinical chemistry / lipids / phospholipids + systemic / organ weight / liver / nos + systemic / pathology microscopic / …
[42] = systemic / clinical chemistry / [other] / [other] + systemic / clinical chemistry / alanine aminotransferase (alt/sgpt) / alanine …
[43] = group: reproductive, reproductive / reproductive performance / implantations / implantations
[44] = systemic / in life observation / body weight / body weight gain
[45] = systemic / in life observation / body weight / body weight gain + systemic / organ weight / heart / nos

COc1nc(C)nc(NC(=O)NS(=O)(=O)c2ccccc2OCCCl)n1 [Triasulfuron]
LEL (rat [1]; [21]): 10 mg/kg/day
NEL (rat [1]; [21]): < 10 mg/kg/day
LOAEL (rat [1]; systemic / in life observation / body weight / body weight + systemic / in life observation / food consumption / food consumption): 500 mg/kg/day
NOAEL (rat [1]; systemic / in life observation / body weight / body weight + systemic / in life observation / food consumption / food consumption + systemic…): 10 mg/kg/day
LEL (mouse [2]; [22]): 129 mg/kg/day
LOAEL (mouse [2]; [22]): 129 mg/kg/day
NEL (mouse [2]; [23]): 1.2 mg/kg/day
NOAEL (mouse [2]; [23]): 1.2 mg/kg/day
LEL (dog [3]; [24]): 2.5 mg/kg/day
LOAEL (dog [3]; [24]): 25 mg/kg/day
NEL (dog [3]; [24]): < 2.5 mg/kg/day
NOAEL (dog [3]; systemic / pathology microscopic / prostate / hyperplasia + systemic / hematology / erythrocyte (rbc) count differential / erythrocyte (rbc…): 2.5 mg/kg/day
LOAEL (rat [4]; [25]): 221 mg/kg/day
NOAEL (rat [4]; [25]): 32.1 mg/kg/day
LEL (rat [4]; systemic / in life observation / clinical signs / palpable mass): 42.9 mg/kg/day
NEL (rat [4]; systemic / in life observation / clinical signs / palpable mass + systemic / in life observation / body weight / body weight + systemic / in…): 0.4 mg/kg/day
LEL (rat [5]; [26]): 100 mg/kg/day
LOAEL (rat [5]; [26]): 900 mg/kg/day
NEL (rat [5]; [26]): < 100 mg/kg/day
NOAEL (rat [5]; group: developmental, developmental / developmental malformation / bone / unossified + systemic / in life observation / body weight / fetal weight): 300 mg/kg/day
LOAEL (rat [5]; group: maternal, systemic / in life observation / body weight / body weight + systemic / in life observation / body weight / body weight gain): 300 mg/kg/day
LEL (rat [5]; group: maternal, systemic / in life observation / body weight / body weight + systemic / in life observation / body weight / body weight gain + systemic / in…): 300 mg/kg/day
NEL (rat [5]; [27]): 100 mg/kg/day
NOAEL (rat [5]; [27]): 100 mg/kg/day

C=CCc1ccc(OC)c(OC)c1 [Methyleugenol]
LOAEL (mouse [6]; [28]): 300 mg/kg/day
NOAEL (mouse [6]; [28]): 100 mg/kg/day
LEL (mouse [6]; [29]): 10 mg/kg/day
NEL (mouse [6]; [29]): < 10 mg/kg/day
LEL (rat [7]): 10 mg/kg/day
LOAEL (rat [7]): 300 mg/kg/day
NEL (rat [7]): < 10 mg/kg/day
NOAEL (rat [7]): 100 mg/kg/day
LEL (rat [8]): 37 mg/kg/day
LOAEL (rat [8]): 75 mg/kg/day
NEL (rat [8]): < 37 mg/kg/day
NOAEL (rat [8]): 37 mg/kg/day
LEL (mouse [9]): 37 mg/kg/day
LOAEL (mouse [9]): 37 mg/kg/day
NEL (mouse [9]): < 37 mg/kg/day
NOAEL (mouse [9]): < 37 mg/kg/day

ClC=CC[N+]12CN3CN(CN(C3)C1)C2.[Cl-] [N-(3-Chloroallyl)hexaminium chloride]
LEL (rabbit [10]): 50 mg/kg/day
LOAEL (rabbit [10]): > 1000 mg/kg/day
NEL (rabbit [10]): < 50 mg/kg/day
NOAEL (rabbit [10]): ≥ 1000 mg/kg/day
NEL (rat [11]; [30]): 75 mg/kg/day
LEL (rat [11]; [31]): 225 mg/kg/day
LOAEL (rat [11]; [31]): > 750 mg/kg/day
NOAEL (rat [11]; [31]): ≥ 750 mg/kg/day
LOAEL (rat [11]; [32]): > 750 mg/kg/day
NOAEL (rat [11]; [32]): ≥ 750 mg/kg/day
LEL (rat [11]; [33]): 75 mg/kg/day
NEL (rat [11]; [33]): < 75 mg/kg/day
LEL (rabbit [12]; [34]): 16 mg/kg/day
LOAEL (rabbit [12]; [34]): 16 mg/kg/day
NEL (rabbit [12]; [34]): 5.1 mg/kg/day
NOAEL (rabbit [12]; [34]): 5.1 mg/kg/day
LEL (rabbit [12]; [35]): 16 mg/kg/day
LOAEL (rabbit [12]; [35]): 16 mg/kg/day
NEL (rabbit [12]; [35]): 5.1 mg/kg/day
NOAEL (rabbit [12]; [35]): 5.1 mg/kg/day

N#Cc1c(Cl)cccc1Cl [Dichlobenil]
LEL (rat [13]): 17.3 mg/kg/day
LOAEL (rat [13]): 17.3 mg/kg/day
NEL (rat [13]): 2.1 mg/kg/day
NOAEL (rat [13]): 2.1 mg/kg/day
LEL (rat [14]; [36]): 50 mg/kg/day
LOAEL (rat [14]; [36]): 50 mg/kg/day
NEL (rat [14]; [37]): 5 mg/kg/day
NOAEL (rat [14]; [37]): 5 mg/kg/day
LEL (rabbit [15]; [38]): 135 mg/kg/day
LOAEL (rabbit [15]; [38]): 135 mg/kg/day
NEL (rabbit [15]; [38]): 45 mg/kg/day
NOAEL (rabbit [15]; [38]): 45 mg/kg/day
LEL (rabbit [15]; [39]): 135 mg/kg/day
LOAEL (rabbit [15]; [39]): 135 mg/kg/day
NEL (rabbit [15]; [39]): 45 mg/kg/day
NOAEL (rabbit [15]; [39]): 45 mg/kg/day
LEL (hamster [16]; [40]): 18.8 mg/kg/day
LOAEL (hamster [16]; [40]): 18.8 mg/kg/day
NEL (hamster [16]; [41]): 3.75 mg/kg/day
NOAEL (hamster [16]; [41]): 3.75 mg/kg/day
LOAEL (dog [17]; [42]): 8.75 mg/kg/day
NEL (dog [17]; [42]): 0.5 mg/kg/day
NOAEL (dog [17]; [42]): 1.25 mg/kg/day
LEL (dog [17]; systemic / urinalysis / occult blood / blood): 1.25 mg/kg/day
LEL (hamster [18]): 45.6 mg/kg/day
LOAEL (hamster [18]): 45.6 mg/kg/day
NEL (hamster [18]): 9.39 mg/kg/day
NOAEL (hamster [18]): 9.39 mg/kg/day
LEL (rat [19]; [30]): 15 mg/kg/day
LOAEL (rat [19]; [30]): 15 mg/kg/day
NEL (rat [19]; [30]): 3 mg/kg/day
NOAEL (rat [19]; [30]): 3 mg/kg/day
LEL (rat [19]; [32]): 100 mg/kg/day
LOAEL (rat [19]; [32]): 100 mg/kg/day
NEL (rat [19]; [32]): 15 mg/kg/day
NOAEL (rat [19]; [32]): 15 mg/kg/day
LEL (rat [19]; [43]): 100 mg/kg/day
LOAEL (rat [19]; [43]): > 100 mg/kg/day
NEL (rat [19]; [43]): 15 mg/kg/day
NOAEL (rat [19]; [43]): ≥ 100 mg/kg/day
LOAEL (hamster [20]; [44]): 51 mg/kg/day
NOAEL (hamster [20]; [44]): < 51 mg/kg/day
LEL (hamster [20]; [45]): 51 mg/kg/day
NEL (hamster [20]; [45]): < 51 mg/kg/day
